Common to all, as to assay type: cell-based
Experiment [1] concerns HUMAN RSV-A (“LONG” STRAIN). Put plainly: RSV-A assay (CPE, ATPlite) in Hep-2 cells. As to conditions: human respiratory syncytial virus, 120 h, MOI 0.1, 5-day incubation. In short, it runs like this: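 Protection from RSV cytopathic effect read by ATP luminescence (ATPlite) after 5-day culture. Genotype A "Long" virus added at MOI 0.1 to Hep-2 monolayers at 8,000 cells/well, pre-dosed with duplicate 2-fold compound dilutions; controls include infected untreated and uninfected wells. EC50 values binned into ranges.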
In general terms: Cellular ATP, detected with luciferase, serves as a proxy for viable cell number.

Experiment [2] relates to hMPV A2 TN/94-49. The experiment is described as follows: HMPV antiviral assay Method 2 (LLC-MK2 cells with CP-100-356, ATP-Lite). The note with it: hMPV A2 TN/94-49, LLC-MK2 cells, 4 μM CP-100-356, Method 2. In short, it runs like this: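 The protective effect was measured after 7 days at 37 °C by ATP-Lite luminescence and expressed as % cell health relative to virus-only and cells-only wells, with EC50 from a four-parameter logistic. Cells were LLC-MK2 infected with strain A2 TN/94-49 (MOI 0.16) with final 2 μM CP-100-356 and 2 μg/mL TPCK-trypsin; 10 duplicate concentrations from 200 nM, 2.5-fold steps.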

The subject of experiment [3] is hMPV A2 TN/94-49. Put plainly: HMPV antiviral assay Method 1 (LLC-MK2 cells, ATP-Lite). The note with it: hMPV A2 TN/94-49, LLC-MK2 cells. The procedure, abridged:
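LLC-MK2 cells infected in suspension with hMPV A2 TN/94-49 at MOI 0.005, 5,000 cells/well, in serum-free OptiMEM with 2 μg/mL TPCK-trypsin (final) and CaCl2; compounds in duplicate, 10 points, 2 μM top, 2.5-fold dilutions. After 7 days at 37 °C, cell health by ATP-Lite luminescence; EC50 by four-parameter fit.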

Data on 26 molecules can be found in patent US12358921B2, “Antiviral heterocyclic compounds” (priority 2022, dated 2025).

Each structure is given as a SMILES string. pEC50: −log10 of the molar value. A value given as a limit tells only on which side of the number the result lay.

The pEC50 is the negative decadic logarithm of the EC50, by convention in mol/L. In the case of `COc1cc(C(=O)NC[C@@](O)(c2ccc(C(F)(F)F)cc2)c2cc3c(c(-c4cc(Cl)c(F)cc4F)n2)OC[C@]3(C)C(N)=O)cc2cn(C3CC3)nc12` [Example 130], the pEC50 in experiment [1] is greater than 6.70; in the experiment with hMPV A2 TN/94-49 [2], less than 6.70; in the experiment with hMPV A2 TN/94-49 [3], less than 6.30.

Regarding `COc1cc(C(=O)NC[C@@](O)(c2ccccc2)c2cc3c(c(-c4ccc(F)c(Cl)c4Cl)n2)OC[C@]3(C)C(N)=O)cc2cc(C)nnc12` [Example 289], the pEC50 is greater than 6.70 in experiment [1], greater than 6.70 in the experiment with hMPV A2 TN/94-49 [2] and greater than 6.30 in the experiment with hMPV A2 TN/94-49 [3].

On to `COc1cc(C(=O)NC[C@](O)(c2cc3c(c(-c4cc(F)c(F)cc4C)n2)OC[C@]3(C)C(N)=O)C2CC2)cc2cn(C3CC3)nc12` [Example 50], for which the pEC50 in experiment [1] is greater than 6.70; in the experiment with hMPV A2 TN/94-49 [2], greater than 6.70; in the experiment on hMPV A2 TN/94-49 [3], less than 6.30.

With `COc1cc(C(=O)NCC(O)(c2cc3c(c(-c4cc(Cl)c(F)cc4F)n2)OC[C@]3(C)C(N)=O)c2ccc(C)s2)cc2cn(C3CC3)nc12` (stereo partly drawn) [Example 470], the negative-log EC50 (pEC50) is greater than 6.70 in experiment [1], greater than 6.70 with hMPV A2 TN/94-49 [2] and greater than 6.30 in the experiment on hMPV A2 TN/94-49 [3].

In the case of `COc1cc(C(=O)NC[C@@](O)(c2ccccc2)c2cc3c(c(-c4ccc(F)c(Cl)c4Cl)n2)OC[C@]3(C)C(N)=O)cc2oc(C3CC3)nc12` [Example 278], the values for the negative-log EC50 (pEC50) (in experiment [1]; in the experiment with hMPV A2 TN/94-49 [2]; with hMPV A2 TN/94-49 [3]) were greater than 6.70, greater than 6.70 and greater than 6.30, respectively.

As for `COc1cc(C(=O)NC[C@@](O)(c2ccccn2)c2cc3c(c(-c4cc(Cl)c(F)cc4F)n2)OC[C@]3(C)C(N)=O)cc2cn(C3CC3)nc12` [Example 463], the pEC50 is greater than 6.70 in experiment [1], greater than 6.70 with hMPV A2 TN/94-49 [2] and greater than 6.30 in the experiment on hMPV A2 TN/94-49 [3].

For the molecule `COc1cc(C(=O)NC[C@](O)(c2cc3c(c(-c4cc(F)c(F)cc4F)n2)OC[C@]3(C)C(N)=O)C2CC2)cc2cc(C)c(F)nc12` [Example 21], the pEC50 in experiment [1] is greater than 6.70; in the experiment on hMPV A2 TN/94-49 [2] it was greater than 6.70; in the experiment on hMPV A2 TN/94-49 [3] it was greater than 6.30.

As for `COc1cc(C(=O)NC[C@@](O)(c2ccccc2)c2cc3c(c(-c4cc(Cl)c(F)cc4F)n2)OC[C@]3(C)C(N)=O)cc2cc(C)nnc12` [Example 89], the figures for the pEC50 (in experiment [1]; with hMPV A2 TN/94-49 [2]; with hMPV A2 TN/94-49 [3]) were greater than 6.70, greater than 6.70 and greater than 6.30, respectively.

For the molecule `COc1cc(C(=O)NC[C@@](O)(c2cccc(F)c2)c2cc3c(c(-c4cc(Cl)c(F)cc4F)n2)OC[C@]3(C)C(N)=O)cc2cc(C3CC3)nn12` [Example 133], the pEC50 in experiment [1] is greater than 6.70; in the experiment on hMPV A2 TN/94-49 [2], greater than 6.70; in the experiment on hMPV A2 TN/94-49 [3], greater than 6.30.

`COc1cc(C(=O)NC[C@@](O)(c2ccc(F)cc2)c2cc3c(c(-c4ccc(F)c(Cl)c4Cl)n2)OC[C@]3(C)C(N)=O)cc2cn(C3CC3)nc12` [Example 41]: the figures for the pEC50 (in experiment [1]; in the experiment with hMPV A2 TN/94-49 [2]; in the experiment with hMPV A2 TN/94-49 [3]) were greater than 6.70, greater than 6.70 and greater than 6.30, respectively.

As to `COc1cc(C(=O)NC[C@@](O)(c2cccc(F)c2)c2cc3c(c(-c4cc(C(F)(F)F)c(F)cc4F)n2)OC[C@]3(C)C(N)=O)cc2oc(C3CC3)nc12` [Example 297], the negative-log EC50 (pEC50) is greater than 6.70 in experiment [1], greater than 6.70 in the experiment on hMPV A2 TN/94-49 [2] and greater than 6.30 in the experiment with hMPV A2 TN/94-49 [3].

On to `COc1cc(C(=O)NC[C@@](O)(c2cccc(F)c2)c2cc3c(c(-c4ccc(F)c(Cl)c4Cl)n2)OC[C@]3(C)C(N)=O)cc2cn(C(F)F)nc12` [Example 270], for which the pEC50 in experiment [1] is greater than 6.70; in the experiment on hMPV A2 TN/94-49 [2], greater than 6.70; in the experiment on hMPV A2 TN/94-49 [3] it was greater than 6.30.

Consider `COc1cc(C(=O)NC[C@@](O)(c2ccccc2)c2cc3c(c(-c4cc(Cl)c(F)cc4F)n2)OC[C@]3(C)C(N)=O)cc2cn(C3(F)CC3)nc12` [Example 158], for which the pEC50 in experiment [1] was greater than 6.70; in the experiment with hMPV A2 TN/94-49 [2] it was greater than 6.70; with hMPV A2 TN/94-49 [3] it was greater than 6.30.

Take `COc1cc(C(=O)NC[C@@](O)(c2ccc(F)cc2)c2cc3c(c(-c4ccc(F)c(Cl)c4Cl)n2)OC[C@]3(C)C(N)=O)cc2cn(C3(F)CC3)nc12` [Example 43]: the results for the negative logarithm of the EC50 (pEC50) (in experiment [1]; in the experiment on hMPV A2 TN/94-49 [2]; with hMPV A2 TN/94-49 [3]) were greater than 6.70, greater than 6.70 and greater than 6.30, respectively.

As to `COc1cc(C(=O)NC[C@@](O)(c2ccccc2)c2cc3c(c(-c4cc(F)c(F)cc4F)n2)OC[C@]3(C)C(N)=O)cc2cn(C(F)F)nc12` [Example 172], the pEC50 in experiment [1] was greater than 6.70; in the experiment on hMPV A2 TN/94-49 [2], greater than 6.70; in the experiment with hMPV A2 TN/94-49 [3], greater than 6.30.

For the molecule `COc1cc(C(=O)NC[C@@](O)(c2ccsc2)c2cc3c(c(-c4cc(F)c(F)cc4F)n2)OC[C@]3(C)C(N)=O)cc2cn(C3(F)CC3)nc12` [Example 179], the pEC50 in experiment [1] was greater than 6.70; with hMPV A2 TN/94-49 [2] it was greater than 6.70; with hMPV A2 TN/94-49 [3], greater than 6.30.

For `COc1cc(C(=O)NC[C@](O)(c2cc3c(c(-c4ccc(F)c(Cl)c4Cl)n2)OC[C@]3(C)C(N)=O)C(F)(F)F)cc2cn(C3CC3)nc12` [Example 65], the figures for the negative-log EC50 (pEC50) (in experiment [1]; in the experiment with hMPV A2 TN/94-49 [2]; with hMPV A2 TN/94-49 [3]) were greater than 6.70, greater than 6.70 and greater than 6.30, respectively.

`COc1cc(C(=O)NC[C@](O)(c2cc3c(c(-c4cc(Cl)c(F)cc4F)n2)OC[C@]3(C)C(N)=O)c2cccs2)cc2cn(C3CC3)nc12` [Example 474]: the pEC50 in experiment [1] is greater than 6.70; with hMPV A2 TN/94-49 [2] it was greater than 6.70; in the experiment on hMPV A2 TN/94-49 [3], greater than 6.30.

As to `COc1cccc([C@](O)(CNC(=O)c2cc(OC)c3nn(C4CC4)cc3c2)c2cc3c(c(-c4cc(Cl)c(F)cc4F)n2)OC[C@]3(C)C(N)=O)c1` [Example 160], the results for the pEC50 (in experiment [1]; in the experiment on hMPV A2 TN/94-49 [2]; in the experiment with hMPV A2 TN/94-49 [3]) were greater than 6.70, greater than 6.70 and greater than 6.30, respectively.

Turning to `COc1cc(C(=O)NC[C@@](O)(c2ccccc2)c2cc3c(c(-c4ccc5c(c4)OC(F)(F)O5)n2)OC[C@]3(C)C(N)=O)cc2cn(C3CC3)nc12` [Example 18], the negative logarithm of the EC50 (pEC50) in experiment [1] is greater than 6.70; with hMPV A2 TN/94-49 [2], greater than 6.70; with hMPV A2 TN/94-49 [3] it was greater than 6.30.

For `COc1cc(C(=O)NC[C@@](O)(c2cccc(F)c2)c2cc3c(c(-c4ccc(F)c(Cl)c4Cl)n2)OC[C@]3(C)C(N)=O)cc2oc(C3CC3)nc12` [Example 280], the negative logarithm of the EC50 (pEC50) in experiment [1] is greater than 6.70; with hMPV A2 TN/94-49 [2], greater than 6.70; in the experiment with hMPV A2 TN/94-49 [3], greater than 6.30.

Turning to `Cc1cnc2c(OC3CC3)cc(C(=O)NC[C@@](O)(c3ccccc3)c3cc4c(c(-c5cc(Cl)c(F)cc5F)n3)OC[C@]4(C)C(N)=O)cc2c1` [Example 182], the pEC50 was greater than 6.70 in experiment [1], greater than 6.70 in the experiment with hMPV A2 TN/94-49 [2] and greater than 6.30 with hMPV A2 TN/94-49 [3].

Take `COc1cc(C(=O)NC[C@@](O)(c2ccccc2)c2cc3c(c(-c4cc(Cl)c(F)cc4F)n2)OC[C@]3(C)C(N)=O)cc2sc(N)nc12` [Example 157]: the pEC50 is greater than 6.70 in experiment [1], greater than 6.70 in the experiment with hMPV A2 TN/94-49 [2] and greater than 6.30 with hMPV A2 TN/94-49 [3].

For `C[C@]1(C(N)=O)COc2c1cc([C@@](O)(CNC(=O)c1cc(OC3CC3)c3nn(C4(F)CC4)cc3c1)C1CC1)nc2-c1cc(Cl)c(F)cc1F` [Example 5], the pEC50 in experiment [1] was greater than 6.70; in the experiment with hMPV A2 TN/94-49 [2], greater than 6.70; in the experiment with hMPV A2 TN/94-49 [3], greater than 6.30.

Consider `COc1cc(C(=O)NC[C@@](O)(c2ccccc2)c2cc3c(c(-c4cc(Cl)c(F)cc4F)n2)OC[C@]3(C)C(N)=O)cc2cc(Cl)cnc12` [Example 187], for which the pEC50 in experiment [1] was greater than 6.70; with hMPV A2 TN/94-49 [2] it was greater than 6.70; in the experiment on hMPV A2 TN/94-49 [3] it was greater than 6.30.

Regarding `C[C@]1(C(N)=O)COc2c1cc([C@@](O)(CNC(=O)c1ccc3nc(C4CC4)oc3c1)c1ccccc1)nc2-c1cc(Cl)c(F)cc1F` [Example 88], the negative logarithm of the EC50 (pEC50) in experiment [1] is greater than 6.70; in the experiment on hMPV A2 TN/94-49 [2] it was greater than 6.70; in the experiment on hMPV A2 TN/94-49 [3] it was greater than 6.30.
